Data on 31 compounds can be found in patent US9926282B2, “Phthalazinones and isoquinolinones as rock inhibitors” (BRISTOL-MYERS SQUIBB COMPANY, priority 2013, dated 2018).

One assay has as its target ROCK1 (Homo sapiens (Human), UniProt Q13464). Description: ROCK assay (LABCHIP peptide phosphorylation), ROCK1. The format is biochemical. As to conditions: 5 μM ATP, 1.5 μM peptide substrate; read-out: ROCK1 IC50.
The next assay has as its target ROCK2 (Homo sapiens (Human), UniProt O75116). The assay can be described thus: ROCK assay (LABCHIP peptide phosphorylation), ROCK2. In kind it is biochemical. As to conditions: 5 μM ATP, 1.5 μM peptide substrate.

Chain of ROCK1 (Q13464 whole entry, species assumed): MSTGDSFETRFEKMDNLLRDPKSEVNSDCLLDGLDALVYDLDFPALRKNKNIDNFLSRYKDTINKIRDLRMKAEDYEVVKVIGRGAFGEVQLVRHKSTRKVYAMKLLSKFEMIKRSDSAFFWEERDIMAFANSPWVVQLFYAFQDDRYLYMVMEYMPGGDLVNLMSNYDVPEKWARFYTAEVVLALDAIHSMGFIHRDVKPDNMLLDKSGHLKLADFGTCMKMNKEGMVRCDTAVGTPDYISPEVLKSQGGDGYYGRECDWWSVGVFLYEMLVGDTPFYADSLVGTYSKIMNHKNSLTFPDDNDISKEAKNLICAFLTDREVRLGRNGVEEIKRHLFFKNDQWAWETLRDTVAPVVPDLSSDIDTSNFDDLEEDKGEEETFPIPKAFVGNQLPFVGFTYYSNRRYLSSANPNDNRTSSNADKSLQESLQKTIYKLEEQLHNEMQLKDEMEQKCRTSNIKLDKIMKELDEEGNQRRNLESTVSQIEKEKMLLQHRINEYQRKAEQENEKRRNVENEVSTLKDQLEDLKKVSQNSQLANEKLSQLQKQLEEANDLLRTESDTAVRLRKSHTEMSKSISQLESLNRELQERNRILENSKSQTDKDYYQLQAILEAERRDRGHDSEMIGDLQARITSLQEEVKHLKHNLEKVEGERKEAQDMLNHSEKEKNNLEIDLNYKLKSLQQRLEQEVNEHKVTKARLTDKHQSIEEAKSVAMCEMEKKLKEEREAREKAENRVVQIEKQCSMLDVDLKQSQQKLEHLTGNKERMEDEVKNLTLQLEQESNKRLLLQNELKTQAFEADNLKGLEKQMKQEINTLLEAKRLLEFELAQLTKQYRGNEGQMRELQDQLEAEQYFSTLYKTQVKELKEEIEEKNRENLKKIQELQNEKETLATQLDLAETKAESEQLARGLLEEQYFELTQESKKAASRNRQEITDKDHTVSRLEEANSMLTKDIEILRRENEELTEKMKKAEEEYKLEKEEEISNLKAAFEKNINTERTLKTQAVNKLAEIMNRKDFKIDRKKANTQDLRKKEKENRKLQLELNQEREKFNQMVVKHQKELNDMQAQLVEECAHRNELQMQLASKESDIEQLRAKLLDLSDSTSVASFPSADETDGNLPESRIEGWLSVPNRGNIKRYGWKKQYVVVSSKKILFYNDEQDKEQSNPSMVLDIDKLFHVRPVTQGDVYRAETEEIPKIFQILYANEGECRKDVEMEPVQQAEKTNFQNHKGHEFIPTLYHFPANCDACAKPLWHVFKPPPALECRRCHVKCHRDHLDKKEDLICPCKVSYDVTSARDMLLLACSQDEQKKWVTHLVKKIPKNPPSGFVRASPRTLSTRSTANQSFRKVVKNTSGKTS
Chain of ROCK2 (O75116 whole entry, species assumed): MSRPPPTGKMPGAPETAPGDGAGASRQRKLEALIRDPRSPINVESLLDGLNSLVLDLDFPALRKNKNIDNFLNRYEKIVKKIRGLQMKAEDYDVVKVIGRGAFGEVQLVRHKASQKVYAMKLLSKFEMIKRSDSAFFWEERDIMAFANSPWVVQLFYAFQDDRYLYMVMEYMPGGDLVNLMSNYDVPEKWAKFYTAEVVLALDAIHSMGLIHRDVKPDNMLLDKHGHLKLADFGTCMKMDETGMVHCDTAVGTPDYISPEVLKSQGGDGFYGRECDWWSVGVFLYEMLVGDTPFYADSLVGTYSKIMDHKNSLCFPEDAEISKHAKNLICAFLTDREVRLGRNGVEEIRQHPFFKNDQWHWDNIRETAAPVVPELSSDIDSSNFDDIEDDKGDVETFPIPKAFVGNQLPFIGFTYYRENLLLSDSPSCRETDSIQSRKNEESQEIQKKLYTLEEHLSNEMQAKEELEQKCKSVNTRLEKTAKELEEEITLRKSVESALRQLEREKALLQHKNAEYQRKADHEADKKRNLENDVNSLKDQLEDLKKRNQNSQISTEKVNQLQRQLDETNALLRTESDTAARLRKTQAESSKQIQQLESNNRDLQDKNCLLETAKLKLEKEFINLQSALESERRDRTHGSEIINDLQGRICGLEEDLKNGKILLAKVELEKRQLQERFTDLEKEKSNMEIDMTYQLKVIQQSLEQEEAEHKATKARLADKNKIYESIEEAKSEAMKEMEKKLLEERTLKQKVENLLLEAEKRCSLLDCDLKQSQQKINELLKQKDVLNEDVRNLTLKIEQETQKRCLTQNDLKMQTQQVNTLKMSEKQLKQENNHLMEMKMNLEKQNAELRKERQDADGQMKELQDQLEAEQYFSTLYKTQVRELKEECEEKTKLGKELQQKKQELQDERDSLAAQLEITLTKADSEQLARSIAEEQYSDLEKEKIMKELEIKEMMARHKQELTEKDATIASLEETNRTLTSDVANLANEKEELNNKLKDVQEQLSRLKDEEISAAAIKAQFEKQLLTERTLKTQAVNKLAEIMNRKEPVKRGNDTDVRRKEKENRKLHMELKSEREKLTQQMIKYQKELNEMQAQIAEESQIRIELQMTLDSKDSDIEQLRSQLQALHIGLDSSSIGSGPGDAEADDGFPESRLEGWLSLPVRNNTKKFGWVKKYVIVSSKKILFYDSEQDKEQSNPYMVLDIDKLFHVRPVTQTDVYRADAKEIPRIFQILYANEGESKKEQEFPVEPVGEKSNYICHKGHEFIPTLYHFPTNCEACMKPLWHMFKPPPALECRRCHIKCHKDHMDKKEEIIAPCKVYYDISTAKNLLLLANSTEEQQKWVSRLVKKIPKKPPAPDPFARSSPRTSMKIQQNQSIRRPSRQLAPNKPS

What is called IC50 is the concentration needed to halve the response being measured. For the compound `O=C(Cc1ccc(-c2n[nH]c(=O)c3ccccc23)cc1)N1CCc2ccc(OCC3COC3)cc21` [Example 284, 4-(4-{2-[6-(oxetan-3-ylmethoxy)-2,3-dihydro-1H-indol-1-yl]-2-oxoethyl}phenyl)-1,2-dihydrophthalazin-1-one], the IC50 at ROCK1 and against ROCK2 was 0.1 to 100 nM throughout.

Consider `Cc1cc(NC(=O)c2cn(CC(C)(C)O)c3ccccc23)ccc1-c1n[nH]c(=O)c2ccccc12` [Example 302, 1-(2-hydroxy-2-methylpropyl)-N-[3-methyl-4-(4-oxo-3,4-dihydrophthalazin-1-yl)phenyl]-1H-indole-3-carboxamide], for which the IC50 on ROCK1 and on ROCK2 was 0.1 to 100 nM each time.

`O=c1[nH]nc(-c2ccc(Nc3ncc(-c4ccccc4)s3)cc2)c2ccccc12` [Example 88, 4-(4-((5-Phenylthiazol-2-yl)amino)phenyl)phthalazin-1(2H)-one]: the results for the IC50 on ROCK1 and at ROCK2 were 1000 to 50000 nM and 0.1 to 100 nM, respectively.

For `O=c1[nH]nc(-c2ccc(Nc3ncc(-c4ccccc4)o3)cc2)c2ccccc12` [Example 73, 4-(4-((5-Phenyloxazol-2-yl)amino)phenyl)phthalazin-1 (2H)-one], the 50% inhibitory concentration (IC50) at ROCK1 was in the range of 101 to 1000 nM; against ROCK2, 0.1 to 100 nM.

Take `Cc1noc(-c2ccc(CO)cc2)c1C(=O)Nc1ccc(-c2n[nH]c(=O)c3ccccc23)cc1` [Example 224, 5-[4-(hydroxymethyl)phenyl]-3-methyl-N-[4-(4-oxo-3,4-dihydrophthalazin-1-yl)phenyl]-1,2-oxazole-4-carboxamide]: the IC50 at ROCK1 and against ROCK2 was 0.1 to 100 nM throughout.

On to `O=C(Nc1ccc(-c2n[nH]c(=O)c3ccccc23)cc1)C1CCN(Cc2ccccc2)CC1` [Example 56, 1-benzyl-N-[4-(4-oxo-3,4-dihydrophthalazin-1-yl)phenyl]piperidine-4-carboxamide], for which the IC50 on ROCK1 and at ROCK2 was 1000 to 50000 nM in each case.

Regarding `CC(=O)N1CCC(Cn2nc(C(=O)Nc3ccc(-c4n[nH]c(=O)c5ccccc45)cc3)c3ccccc32)CC1` [Example 343, 1-((1-Acetylpiperidin-4-yl)methyl)-N-(4-(4-oxo-3,4-dihydrophthalazin-1-yl)phenyl)-1H-indazole-3-carboxamide], the IC50 on ROCK1 and against ROCK2 was 0.1 to 100 nM each time.

Take `CC(C)(C)n1cc(NC(=O)c2ccncc2)c(C(=O)Nc2ccc(-c3n[nH]c(=O)c4ccccc34)cc2)n1` [Example 234, N-(1-tert-butyl-3-{[4-(4-oxo-3,4-dihydrophthalazin-1-yl)phenyl]carbamoyl}-1H-pyrazol-4-yl)pyridine-4-carboxamide]: the IC50 was 101 to 1000 nM at ROCK1 and 0.1 to 100 nM at ROCK2.

Take `O=C(Nc1ccc(-c2n[nH]c(=O)c3ccccc23)cc1)c1c[nH]c2ccncc12` [Example 166, N-[4-(4-oxo-3,4-dihydrophthalazin-1-yl)phenyl]-1H-pyrrolo[3,2-c]pyridine-3-carboxamide]: the IC50 at ROCK1 fell in the range of 101 to 1000 nM; against ROCK2 it was 0.1 to 100 nM.

With `O=C(Nc1ccc(-c2n[nH]c(=O)c3ccccc23)cc1)C1CCN(c2ccc([N+](=O)[O-])cc2)CC1` [Example 54, 1-(4-nitrophenyl)-N-[4-(4-oxo-3,4-dihydrophthalazin-1-yl)phenyl]piperidine-4-carboxamide], the 50% inhibitory concentration (IC50) at ROCK1 lay within 101 to 1000 nM; at ROCK2 it was 0.1 to 100 nM.

Turning to `COc1ccn2ncc(C(=O)Nc3ccc(-c4n[nH]c(=O)c5ccccc45)cc3)c2c1` [Example 182, 5-methoxy-N-[4-(4-oxo-3,4-dihydrophthalazin-1-yl)phenyl]pyrazolo[1,5-a]pyridine-3-carboxamide], the IC50 at ROCK1 and on ROCK2 was 0.1 to 100 nM each time.

Take `COCCOc1ccc2c(C(=O)Nc3ccc(-c4n[nH]c(=O)c5ccccc45)cc3)cnn2c1` [Example 175, 6-(2-methoxyethoxy)-N-[4-(4-oxo-3,4-dihydrophthalazin-1-yl)phenyl]pyrazolo[1,5-a]pyridine-3-carboxamide]: the IC50 at ROCK1 and against ROCK2 was 0.1 to 100 nM in each case.

In the case of “N-[4-(4-oxo-3,4- dihydrophthalazin-1- yl)phenyl]pyrazolo[1,5- a]pyrimidine-2- carboxamide [Example 102]”, the IC50 at ROCK1 and against ROCK2 was 0.1 to 100 nM in each case.

Regarding `O=C(Nc1ccc(-c2n[nH]c(=O)c3ccccc23)cc1)c1ccc(N2CCCCC2)cc1` [Example 61], the IC50 on ROCK1 and at ROCK2 was 0.1 to 100 nM each time.

For the compound `O=C(Nc1ccc(-c2n[nH]c(=O)c3ccccc23)cc1)C1CCc2ccccc21` (centres unmarked) [Example 91, N-[4-(4-oxo-3,4-dihydrophthalazin-1-yl)phenyl]-2,3-dihydro-1H-indene-1-carboxamide], the values for the IC50 on ROCK1 and against ROCK2 were 1000 to 50000 nM and 0.1 to 100 nM, respectively.

For the compound `Cn1ncc(C(=O)Nc2ccc(-c3n[nH]c(=O)c4ccccc34)cc2)c1-c1ccccc1` [Example 192, 1-methyl-N-[4-(4-oxo-3,4-dihydrophthalazin-1-yl)phenyl]-5-phenyl-1H-pyrazole-4-carboxamide], the values for the IC50 at ROCK1 and against ROCK2 were 101 to 1000 nM and 0.1 to 100 nM, respectively.

With `Cc1cc(NC(=O)c2nn(CC3CCN(C(=O)OCc4ccccc4)CC3)c3ccccc23)ccc1-c1n[nH]c(=O)c2ccccc12` [Example 307, benzyl 4-[(3-{[3-methyl-4-(4-oxo-3,4-dihydrophthalazin-1-yl)phenyl]carbamoyl}-1H-indazol-1-yl)methyl] piperidine-1-carboxylate], the figures for the IC50 on ROCK1 and against ROCK2 were 101 to 1000 nM and 0.1 to 100 nM, respectively.

Regarding `COc1ccc2c(c1)CN(C(=O)Oc1ccc(-c3c[nH]c(=O)c4ccc(OC)cc34)cc1)C2` [Example 267, 4-(6-Methoxy-1-oxo-1,2-dihydroisoquinolin-4-yl)phenyl 5-methoxyisoindoline-2-carboxylate], the IC50 is 101 to 1000 nM on ROCK1 and 0.1 to 100 nM against ROCK2.

Turning to `COc1ccc2c(C(=O)Nc3ccc(-c4n[nH]c(=O)c5ccccc45)cc3)cnn2c1` [Example 141, 6-methoxy-N-[4-(4-oxo-3,4-dihydrophthalazin-1-yl)phenyl]pyrazolo[1,5-a]pyridine-3-carboxamide], the IC50 at ROCK1 and against ROCK2 was 0.1 to 100 nM in each case.

With `COc1cccc2[nH]cc(C(=O)Nc3ccc(-c4n[nH]c(=O)c5ccccc45)cc3)c12` [Example 117, 4-methoxy-N-[4-(4-oxo-3,4-dihydrophthalazin-1-yl)phenyl]-1H-indole-3-carboxamide], the IC50 at ROCK1 and on ROCK2 was 0.1 to 100 nM throughout.

For `CC(C)(O)CNC(=O)Cn1nc(C(=O)Nc2ccc(-c3n[nH]c(=O)c4ccccc34)cc2)c2ccccc21` [Example 334, 1-(2-((2-Hydroxy-2-methylpropyl)amino)-2-oxoethyl)-N-(4-(4-oxo-3,4-dihydrophthalazin-1-yl)phenyl)-1H-indazole-3-carboxamide], the IC50 on ROCK1 and against ROCK2 was 0.1 to 100 nM each time.

Take `CC(C)(C)OC(=O)N1CC(Cn2nc(C(=O)Nc3ccc(-c4n[nH]c(=O)c5ccccc45)c(Cl)c3)c3ccccc32)C1` [Example 316, tert-butyl 3-[(3-{[3-chloro-4-(4-oxo-3,4-dihydrophthalazin-1-yl)phenyl]carbamoyl}-1H-indazol-1-yl)methyl] azetidine-1-carboxylate]: the IC50 was 101 to 1000 nM on ROCK1 and 0.1 to 100 nM against ROCK2.

Consider `Cc1ccn2cc(C(=O)Nc3ccc(-c4n[nH]c(=O)c5ccccc45)cc3)nc2c1` [Example 126, 7-methyl-N-[4-(4-oxo-3,4-dihydrophthalazin-1-yl)phenyl]imidazo[1,2-a]pyridine-2-carboxamide], for which the IC50 fell in the range of 101 to 1000 nM at ROCK1 and 0.1 to 100 nM against ROCK2.

`O=C(Nc1ccc(-c2n[nH]c(=O)c3ccccc23)cc1)c1cn(C2CCNCC2)nn1` [Example 372, N-(4-(4-Oxo-3,4-dihydrophthalazin-1-yl)phenyl)-1-(piperidin-4-yl)-1H-1,2,3-triazole-4-carboxamide]: the IC50 on ROCK1 and against ROCK2 was 101 to 1000 nM throughout.

As to `Cn1c(C(=O)Nc2ccc(-c3n[nH]c(=O)c4ccccc34)cc2)cc2ccccc21` [Example 90, 1-methyl-N-[4-(4-oxo-3,4-dihydrophthalazin-1-yl)phenyl]-1H-indole-2-carboxamide], the IC50 is 101 to 1000 nM at ROCK1 and 0.1 to 100 nM against ROCK2.

On to `CC(C)(O)Cn1nc(C(=O)Nc2ccc(-c3n[nH]c(=O)c4ccccc34)cc2O)c2ccccc21` [Example 353, 1-(2-Hydroxy-2-methylpropyl)-N-(2-hydroxy-4-(4-oxo-3,4-dihydrophthalazin-1-yl)phenyl)-1H-indazole-3-carboxamide], for which the results for the IC50 on ROCK1 and on ROCK2 were 101 to 1000 nM and 0.1 to 100 nM, respectively.

On to `COc1ccc2c(=O)[nH]cc(-c3ccc(NC(=O)N4CCc5ccccc54)cc3C)c2c1` [Example 323, N-(4-(6-Methoxy-1-oxo-1,2-dihydroisoquinolin-4-yl)-3-methylphenyl)indoline-1-carboxamide], for which the IC50 on ROCK1 and on ROCK2 was 0.1 to 100 nM throughout.

For `O=C(Nc1ccc(-c2n[nH]c(=O)c3ccccc23)cc1)c1noc2ccccc12` [Example 118, N-[4-(4-oxo-3,4-dihydrophthalazin-1-yl)phenyl]-1,2-benzoxazole-3-carboxamide], the IC50 lay within 101 to 1000 nM on ROCK1 and 0.1 to 100 nM at ROCK2.

On to `O=C(Nc1ccc(-c2n[nH]c(=O)c3ccccc23)cc1)c1cnn(Cc2ccccc2)c1` [Example 200, 1-benzyl-N-[4-(4-oxo-3,4-dihydrophthalazin-1-yl)phenyl]-1H-pyrazole-4-carboxamide], for which the IC50 on ROCK1 and against ROCK2 was 0.1 to 100 nM throughout.

In the case of `CC(C)(O)Cn1nc(C(=O)Nc2ccc(-c3n[nH]c(=O)c4ccccc34)cc2)c2ccc(F)cc21` [Example 158, 6-fluoro-1-(2-hydroxy-2-methylpropyl)-N-[4-(4-oxo-3,4-dihydrophthalazin-1-yl)phenyl]-1H-indazole-3-carboxamide], the IC50 on ROCK1 and against ROCK2 was 0.1 to 100 nM each time.

Regarding `O=C(Cc1ccc(-c2n[nH]c(=O)c3ccccc23)cc1)N1CCc2ccc(OCc3ccccc3)cc21` [Example 83, 4-(4-(2-(6-(Benzyloxy)indolin-1-yl)-2-oxoethyl)phenyl)phthalazin-1(2H)-one], the IC50 on ROCK1 and against ROCK2 was 0.1 to 100 nM each time.
